Measured values: US20150148387A1, “METHODS OF TREATMENT, DIAGNOSIS AND […] METHA[…] WHICH TARGET CERAMIDE METABOLIC […] AND […] SENESCENCE” (priority 2012, published 2015)
“Also recorded” adds a separate entry of the source. Counter-ions that a name gives are not always drawn. Like-named read-outs stand apart in the source and are kept apart here.

Legend:
[1] = system: primary mouse embryonic fibroblasts (MEF); format: cell-based; conditions: for ceramide (d18:1/16:0) content: incubation of MEF with the drug alone
Procedure: (§1) Cells were washed with ice-cold phosphate-buffered saline (PBS) and scraped into 0.5 ml of methanol/water (1:1, vol:vol) containing the internal standards listed below. Protein concentrations were measured using the BCA protein assay (Pierce, Rockford, Ill., USA). Lipids were extracted with chloroform/methanol (2:1, vol:vol; 1.0 mL). The organic phases were collected, dried under nitrogen and dissolved in methanol for LC/MS analyses.
(§2) Helium was used as collision gas. […] Mobile phase composition was as described above.
(§3) Mouse embryonic fibroblasts (MEFs) were prepared from mice embryo as previously reported. Briefly, pregnant mice at day 13 post coitum were sacrificed and the uteri were dissected out. Each embryo was separated from the placenta and the head and visceral tissues were removed. The remaining body was minced in PBS and incubated with 0.1 mM trypsin/1 mM EDTA at 37° C. for 15 min. Two volumes of Dulbecco's Modified Eagle Medium (DMEM) containing 10% fetal bovine serum (FBS) was added and stood for 5 minutes to settle down large pieces of unbroken tissues. The supernatant was then removed and centrifuged at 200×g for 5 min and suspended in fresh DMEM containing 10% FBS. Cells were cultured at 37° C. with 5% CO2.

[2] = system: primary mouse embryonic fibroblasts (MEF); assay: ROS production in MEF (CM-H2DCFDA); format: cell-based; conditions: CYP inhibitors with methamphetamine
Procedure: Production of ROS was measured using the fluorescent probe CM-H2DCFDA (Invitrogen). This carboxy derivative of fluorescein carries additional negative charges that improve its retention compared to noncarboxylated forms. For these experiments, MEFs were grown in DMEM without phenol red, for which anti-oxidative properties have been reported. Cells were plated to subconfluence in 12-well plates, washed 3 times with pre-warmed PBS and loaded for 30 min at 37° C./5% CO2 with […] CM-H2DCFDA in DMEM without phenol red (loading medium). Then the loading medium was removed and pre-warmed fresh medium containing the different CYP450 inhibitors in presence or absence of methamphetamine was added. Fluorescence (excitation at 485 nm, emission at 530 nm) was analyzed immediately, cells were incubated at 37° C./5% CO2, and fluorescence was analyzed at the indicated time points. ROS rate versus control (%) was calculated subtracting the percentage of ROS increasing from time zero in the methamphetamine-treated samples to the percentage of ROS increasing from time zero in vehicle-treated samples.

[3] = system: primary mouse embryonic fibroblasts (MEF); format: cell-based; conditions: for amphetamine-induced inflammation and senescence: measured by beta-galactosidase assay, crystal violet morphology, and gene expression of pro-inflammatory and pro-senescence genes; for SA-β-gal expression induced by methamphetamine: methamphetamine 1 mM
Procedure: Detection of senescence-associated β-galactosidase staining was performed as previously reported. Briefly, we plated MEFs on Lab-Tek chamber slides at a density of 5×10^4 cells per chamber. Next day, cells were treated with the indicated dose of drug for 48 hours. Cells were washed twice with PBS and fixed in 2% formaldehyde/0.2% glutaraldehyde for five minutes at room temperature. After two PBS washes the slides were incubated with fresh β-galactosidase stain solution (1 mg/mL 5-bromo-4-chloro-3-indoyl β-D-galactoside (X-Gal) 40 mM sodium phosphate, pH 6.0, 5 mM potassium ferrocyanide, 5 mM potassium ferricyanide, 150 mM NaCl, and 2 mM MgCl2) at 37° C. for 12-16 hours. Slides were washed with PBS and mounted with DAPI containing media. Images were taken for the β-gal staining and overlapped with fluorescent images taken of the same region to count the number of cells staining positive for β-gal (Nikon Eclipse E600). More than 200 cells from 5 different regions of a slide were counted in a blind fashion.

[4] = Methamphetamine self-administration in rats: self-administration, body weight, body temperature, food intake; format: in vivo, rat
Procedure: Each experimental group was divided into two subgroups that were tested simultaneously. One subgroup served as yoked controls and passively received an injection of saline (which was not contingent on responding) each time a response-contingent injection of 0.1 mg/kg methamphetamine was actively self-administered by the first subgroup of rats. […] The first experimental groups consisted of 12 rats self-administering methamphetamine and 6 yoked control rats. The second experimental group consisted of 9 rats self-administering methamphetamine and 9 yoked control rats. The third experimental group consisted of 16 rats self-administering methamphetamine and 8 yoked control rats. […] The pretreatment with L-CS was always given immediately before and after each session and the catheter was flushed with 0.5 ml of saline afterwards. Before and after sessions 4 and 5 animals received dose 10 mg/kg of L-CS and before and after sessions 6, 7, and 8 they received dose 20 mg/kg of L-CS. The animals received total dose 160 mg/kg of L-CS during the experiment. In this group, we also measured three times the rectal temperature. The first measurement was done one the day before the experiment began at 2 pm, the second measurement was done at 2 pm before the eighth session, and the third measurement immediately after the eighth session.
Eight consecutive 15-hour sessions were conducted between 4 p.m. and 8 a.m. Rats and the food in the feeders were weighed before the start of each session. At the start of each session, a white house light was turned on and a priming injection of 0.1 mg/kg methamphetamine (or saline for yoked group), sufficient to fill the “dead” space of the IV catheter, was automatically delivered. Rats learned to self-administer methamphetamine under one-response, fixed ratio schedule (FRI) of i.v. methamphetamine injection with 30-s time-out duration. Each nose-poke response in the active hole (FRI) produced a delivery of an i.v. injection of 0.1 mg/kg of methamphetamine followed by 30-s timeout period, during which the chamber was dark and responses in either hole had no programmed consequences.

[5] = system: ceramide content and IL-6 and p21 mRNA; assay: Acute experiment in mice: methamphetamine alone or in combination with L-CS
[6] = system: de novo ceramide biosynthesis; assay: Methamphetamine self-administration in rats: lipidomic analysis of tissues by LC/MS
Procedure: Male Sprague-Dawley rats (Charles River, Wilmington, Mass.), weighing approximately 360-440 g at the beginning of the self-administration experiment, were individually housed in a temperature- and humidity-controlled environment under a reversed lighting 12-h light/dark cycle (lights on at 7:00 p.m.). The rats were allowed free access to food (NIH07 biscuits) in their home cage throughout the study. Water was available ad libitum in the home cage and in the testing chamber. Rats were tested in the light phase. They were experimentally and drug naïve at the beginning of this study.
Each of eighteen standard operant-conditioning chambers (Coulbourn Instruments, Lehigh Valley, Pa.) contained a white house light and two holes with nose-poke operanda on either side of a food trough. Upon activation, each nose poke produced a brief feedback tone. […] The tubing was attached to a syringe pump (Harvard Apparatus, South Natick, Mass.), which was programmed to deliver 2-s injections. The injected volume was adjusted for every animal to deliver a methamphetamine dose of 0.1 mg/kg/injection. Experimental events were controlled by microcomputers using MED Associates interfaces and software (Med Associates Inc., East Fairfield, Vt.).
Silastic catheter was implanted into the external jugular vein under anesthesia with a mixture of ketamine and xylazine (60 and 10 mg/kg i.p., respectively). Catheter exited the skin behind the ear. After catheter implantation, a nylon bolt glued to an acrylic mesh was implanted subcutaneously in the midscapular region. The nylon bolt served as a tether, preventing the catheter from being pulled out during self-administration sessions. Following surgery, the IV catheter was flushed daily during the first week with 0.2-0.3 ml of solution containing cephalosporin (100 mg/ml; Cefazolin For Injection, USP; Hospira Inc., Lake Forest, Ill., USA) and then flushed before and after each daily session with saline to maintain its patency) and then flushed after each daily session with saline to maintain its patency.
Each experimental group was divided into two subgroups that were tested simultaneously. One subgroup served as yoked controls and passively received an injection of saline (which was not contingent on responding) each time a response-contingent injection of 0.1 mg/kg methamphetamine was actively self-administered by the first subgroup of rats. […] The first experimental groups consisted of 12 rats self-administering methamphetamine and 6 yoked control rats. The second experimental group consisted of 9 rats self-administering methamphetamine and 9 yoked control rats. The third experimental group consisted of 16 rats self-administering methamphetamine and 8 yoked control rats. […] The pretreatment with L-CS was always given immediately before and after each session and the catheter was flushed with 0.5 ml of saline afterwards. Before and after sessions 4 and 5 animals received dose 10 mg/kg of L-CS and before and after sessions 6, 7, and 8 they received dose 20 mg/kg of L-CS. The animals received total dose 160 mg/kg of L-CS during the experiment.
Eight consecutive 15-hour sessions were conducted between 4 p.m. and 8 a.m. Rats and the food in the feeders were weighed before the start of each session. At the start of each session, a white house light was turned on and a priming injection of 0.1 mg/kg methamphetamine (or saline for yoked group), sufficient to fill the “dead” space of the IV catheter, was automatically delivered. Rats learned to self-administer methamphetamine under one-response, fixed ratio schedule (FRI) of i.v. methamphetamine injection with 30-s time-out duration.

[7] = system: isolated mitochondria from primary MEF; assay: Lipid analysis of isolated mitochondria from MEF; format: cell-based, mouse
Procedure: as §1, §2, §3

[8] = system: primary mouse embryonic fibroblasts (MEF); assay: Gene expression in MEF; format: cell-based
Procedure: Total RNA was extracted from frozen tissues using TRIzol reagent (Invitrogen, Carlsbad, Calif.) and was purified with the RNeasy mini kit (Qiagen, Valencia, Calif.). First-strand complementary DNAs were synthesized using SuperScript II RNaseH reverse transcriptase (Invitrogen). Reverse transcription of total RNA (2 μg) was carried out using oligo(dT)12-18 primers for 50 min at 42° C. mRNA levels were measured by quantitative real-time polymerase chain reaction (RT-PCR) with a Mx 3000P system (Stratagene, La Jolla, Calif.). The following list of primers and fluorogenic probes purchased from Applied Biosystems (TaqMan Gene Expression Assays, Foster City, Calif.): Ceramide Synthase 1 (Rn01420081_m1), Ceramide Synthase 2 (Rn01762789_m1), Ceramide Synthase 4 (Rn01767402_m1), Ceramide Synthase 5 (Rn01532864_m1), Ceramide Synthase 6 (Rn01270930_m1), Interleukin-6 (Rn01410330_m1). mRNA levels were normalized using beta actin, 18S ribosomal protein or glyceraldehyde-3-phosphate dehydrogenase as internal standards. Additional PCR primers were designed using Primer 3 (https://www.Frodo.wit.mit.edu), and the sequences are shown in S.Table XXX.
as §3

[9] = system: de novo ceramide biosynthesis; assay: Acute methamphetamine administration in rats: tissue lipid levels
Procedure: Forty-six male Sprague-Dawley rats (Charles River, Wilmington, Mass.), weighing approximately 360-420 g were used in these experiments.
Three groups of rats were used for these experiments. Group 1: On the day of the experiment, rats received two i.p. injections of methamphetamine, 10 mg/kg (n=6), or saline (n=6) every 2 h. Two hours after the last administration of methamphetamine or saline, rats were euthanized by decapitation. Brain, liver, kidney (left), heart, skin (hind paw), skeletal muscle (vastus lateralis muscle) were harvested. Brains and livers were snap-frozen in isopentane and other tissues were snap-frozen in liquid nitrogen and stored at −80° C. Group 2: On the day of the experiment, rats received two i.p. injections of methamphetamine, 1.5 mg/kg (n=6), or saline (n=6) every 2 h. Other details are the same as for group 1. Group 3: On the day of the experiment, five rats received two i.p. injections of 1.5 mg/kg methamphetamine every 2 h; five rats received two i.p. injections of 5 mg/kg methamphetamine every 2 h; six rats received two i.p. injections of 10 mg/kg D-methamphetamine every 2 h, and six rats received two i.p. injections of saline every 2 h. Two hours after the last injection, blood was collected by cardiac puncture under isoflurane anesthesia and immediately afterwards brain, skeletal muscle and skin were harvested and handled as described for group 1.
Briefly, frozen brain samples were weighed and homogenized in cold methanol containing appropriate internal standards (listed below). Lipids were extracted by adding chloroform and water (2/1, vol/vol) and fractionated through open-bed silica gel columns by progressive elution with chloroform/methanol mixtures. Fractions eluted from the columns were dried under nitrogen, reconstituted in chloroform/methanol (1:4, vol/vol; 0.1 ml) and subjected to LC/MS.
Sphingolipid molecular species were analyzed by tandem mass spectrometry, using an Agilent 1100 liquid chromatography coupled to an ESI-ion-trap XCT mass detector. Dihydroceramides and ceramides were separated on a Poroshell 300 SB C18 column (2.1×75 mm i.d., 5 μm; Agilent Technologies) maintained at 30° C. […] Extracted ion chromatograms were used to quantify the following ceramides: d18:1/16:0 [M+H]^+ (m/z=538.5>520.5>264.3), d18:0/16:0 [M+H]^+ (m/z=540.5>522.5), d18:1/18:0 [M+H]^+ (m/z=566.5>548.5>264.3), d18:0/18:0 [M+H]^+ (m/z=568.5>550.5), d18:1/24:0 [M+H]^+ (m/z=650.6>632.8>2643), d18:0/24:0 [M+H]^+ (m/z=652.6>634.8), d18:1/24:1 [M+H]^+ (m/z=648.6>630.8>264.3), d18:0/24:1 [M+H]^+ (m/z=650.6>632.8), using d18:1/12:0 [M+H]^+ (m/z=482.5>464.5>264.3) as an internal standard. […]

[10] = system: primary mouse embryonic fibroblasts (MEF); assay: DNA replication assay ([3H]thymidine); conditions: 48 h, 1 mM
[11] = system: primary mouse embryonic fibroblasts (MEF); assay: Population doubling; format: cell-based; conditions: 1 mM; compared to control cells
Procedure: We plated 1×10^6 cells on a 60 mm dishes and treated them with 1 mM methamphetamine. Cells were trypsinized and re-plated at the same density (1×10^6 cells/dish) every 3 days for 6 passages. Population doublings were calculated according to the formula log (final cell number/plated cell number/log 2).

ceramide synthase (CerS) [12] = assay: Acute methamphetamine administration in rats: ceramide synthase activity; format: in vivo, rat; conditions: non-contingent methamphetamine administration; data not shown
Procedure: Three groups of rats were used for these experiments. […] Other details are the same as for group 1.
(§4) Fresh rat tissues were collected in 1 ml of homogenization buffer (25 mM HEPES, pH 7.4, containing 5 mM EGTA, 50 mM NaF, and complete mini EDTA-free protease inhibitor). Tissues were disrupted using pulse homogenizer, and centrifuged at 800×g for 5 min. The postnuclear supernatant was centrifuged at 250,000×g for 30 min at 4° C. in ultracentrifuge. The microsomal membrane pellet was resuspended in 250-500 μl of homogenization buffer. Protein concentration was measured using the BCA protein assay (Pierce, Rockford, Ill.).
Ceramide synthase activity was measured at 37° C. for 1 hr in HEPES buffer (20 mM, pH 7.4) containing 2 mM MgCl2, fatty acid-free bovine serum albumin (20 μmol) membrane proteins (0.05-0.1 mg), using dihydrosphingosine (sphinganine d17:0, 20 μmol) and palmitoyl-coenzyme A (70 μmol) as substrates. The reactions were stopped by adding chloroform-methanol (2:1, v/v) containing C12:0 ceramide (d18:1/12:0) as an internal standard. […] Products of reaction were measured using an Agilent 1100-LC system coupled to ion-trap XCT and interfaced with ESI (Agilent Technologies). […] For quantification purposes, we monitored the ions at m/z 526.5>508.5 for C17:0 dihydroceramide (d17:0/16:0) and m/z 482.5>464.5>264.3 for C12:0 ceramide (d18:1/12:0).

[13] = system: primary mouse embryonic fibroblasts (MEF); assay: Crystal violet staining, cell morphology; format: cell-based; conditions: 48 h, 1 mM, passage 2
Procedure: To study cell morphology, cells were plated and treated in 6-well plates. After fixation, with 4% paraformaldehyde cells were stained with crystal violet (0.5% crystal violet in methanol:PBS, 1:1, v/v). After thorough wash in tap water, images were taken using a Westover Scientific Series 8 microscope.

ceramide synthase (CerS) [14] = assay: Methamphetamine self-administration in rats: ceramide synthase activity in tissue; format: in vivo, rat; conditions: self-administering rats; data not shown
Procedure: as §4
Ceramide synthase activity was measured at 37° C. for 1 hr in HEPES buffer (20 mM, pH 7.4) containing 2 mM MgCl2, fatty acid-free bovine serum albumin (20 μmol) membrane proteins (0.05-0.1 mg), using dihydrosphingosine (sphinganine d17:0, 20 μmol) and palmitoyl-coenzyme A (70 μmol) as substrates. The reactions were stopped by adding chloroform-methanol (2:1, v/v) containing C12:0 ceramide (d18:1/12:0) as an internal standard. Lipid extracts were dried under nitrogen and reconstituted in chloroform-methanol (1:3, v/v; 0.1 ml) for LC-MS analyses. Products of reaction were measured using an Agilent 1100-LC system coupled to ion-trap XCT and interfaced with ESI (Agilent Technologies). […] For quantification purposes, we monitored the ions at m/z 526.5>508.5 for C17:0 dihydroceramide (d17:0/16:0) and m/z 482.5>464.5>264.3 for C12:0 ceramide (d18:1/12:0).

[15] = skeletal muscle, rats self-administering methamphetamine vs controls
[16] = skeletal muscle, self-administering rats vs controls

TNF-α
cellular ceramide content ([1]; MEF, TNF-α treatment activating NF-κB): mimic the effects of methamphetamine

CCCCc1ccc(N=CNO)c(C)c1 [HET-0016]
ceramide formation in D-meth-treated cells ([1]; MEF, inhibitors each at 10 μM): ineffective

CCCC(C(=O)OCCN(CC)CC)(c1ccccc1)c1ccccc1 [SKF-525A]
release of ROS evoked by methamphetamine [2]: prevented | ceramide formation in D-meth-treated cells ([1]; MEF, inhibitors each at 10 μM): normalized

C[C@H](N)Cc1ccccc1 [d-amphetamine]
ceramide (d18:1/16:0) content [1]: modest but statistically significant (p<0.014) increase

O=C1CCC(N2C(=O)c3ccccc3C2=O)C(=O)N1 (stereo not drawn) [thalidomide]
amphetamine-induced inflammation and senescence [3]: prevent

CN/C(=N/CCSCc1nc[nH]c1C)NC#N [cimetidine]
release of ROS evoked by methamphetamine [2]: prevented | ceramide formation in D-meth-treated cells [1]: normalized

CN[C@@H](C)Cc1ccccc1.Cl [L-methamphetamine, L-methamphetamine hydrochloride]
ceramide (d18:1/16:0) content [1]: no such effect

N[C@H]1CONC1=O [L-cycloserine]
expression of SA-β-gal by the cell-permeable ceramide analog C8 [3]: neither L-CS nor FB1 blocked | amphetamine-induced inflammation and senescence [3]: prevent | SA-β-gal expression induced by methamphetamine ([3]; inhibitor 30 μM): suppressed | methamphetamine-induced reduction of food intake ([4]; L-CS treatment): did not alter | meth induced changes in body temperature ([4]; L-CS treatment, listed as L-CS): did not alter | methamphetamine self-administration ([4]; L-CS treatment, listed as L-CS): no effect; also recorded: did not alter | body weight (wasting phenotype) ([4]; methamphetamine self-administering animals treated with L-CS, listed as L-CS): able to rescue the wasting phenotype; also recorded: corrected the abnormalities in body weight | methamphetamine-induced increase of ceramide ([5]; methamphetamine in combination with L-CS): block the increase | methamphetamine induced increases in ceramide content ([6]; 8 days self-administration, L-CS i.v. from 4 days into the study (10 then 20 mg/kg before and after sessions)): blocked | methamphetamine induced increases in ceramide ([7]; isolated mitochondria from primary MEF, inhibitor 30 μM): able to block | methamphetamine-induced increase in the transcription of IL-6, TNF-alpha, p21 and p53 ([8]; MEF, co-administration with methamphetamine): blocked | methamphetamine induced increases in ceramide ([1]; primary MEF, inhibitor 30 μM): able to block

CN[C@@H](C)Cc1ccccc1 [methamphetamine, S(+)-methylamphetamine HCl]
striatal levels of various ceramide species ([9]; dorsal striatum, 2×10 mg/kg intraperitoneal): marked increase | changes in ceramide species ([9]; low doses (i.e., non-toxic)): did not induce any changes | ceramide levels in peripheral tissues ([9]; plasma, skeletal muscle, heart, liver and skin, 2×10 mg/kg intraperitoneal): marked increases | d18:1/16:0 ceramide levels ([9]; rat skeletal muscle, intraperitoneal 3, 10, and 20 mg/kg): dose-dependent increase | number of SA-β-gal positive cells ([3]; 1 mM, 48 h, passage 1 to 4, vs vehicle-treated cells): increased | increase in the number of SA-β-gal positive cells ([3]; 1 mM, 48 h, passage 3, versus non-treated cells): greater than 4 fold | number of SA-β-gal positive cells ([3]; 1 mM, 48 h, passage 5): did not further increase | ceramide content ([5]; acute treatment with methamphetamine alone): increased | DNA synthesis, [3H]-thymidine [10]: decreased | increase in ceramide (d18:1/16:0) [6, 15]: 4 fold | increase in dihydroceramide (d18:1/16:0) [6, 15]: 4 fold | levels of dihydrosphingomyelin (d18:1/16:0) [6, 16]: unchanged | levels of sphingomyelin (d18:1/16:0) [6, 16]: unchanged | multiple ceramide species ([6]; various tissues, largest increase in skeletal muscle, heart and liver, methamphetamine-exposed rats vs controls): substantially increased | number of population doublings [11]: decreased | CerS activity (ceramide synthase (CerS) [12]): increased | cell morphology [13]: morphological changes typical of senescent phenotype | CerS activity (ceramide synthase (CerS) [14]): increased | long chain ceramides (d18:1/24:0 and d18:1/24:1) ([7]; methamphetamine 1 mM): mitochondrial specific increase | short chain ceramide (d18:1/16:0) ([7]; methamphetamine 1 mM): increases | mRNA levels of the genes involved de novo ceramide biosynthesis ([8]; MEF treated with methamphetamine): increased | p21 and p53 transcription ([8]; MEF, methamphetamine treatment): increase | ceramide (d18:1/16:0) content [1]: increased ceramide (d18:1/16:0) in a dose-dependent manner

CCCC[C@@H](C)[C@@H](OC(=O)C[C@@H](CC(=O)O)C(=O)O)[C@H](C[C@@H](C)C[C@H](O)CCCC[C@@H](O)C[C@H](O)[C@H](C)N)OC(=O)C[C@@H](CC(=O)O)C(=O)O [Fumonisin B1]
expression of SA-β-gal by the cell-permeable ceramide analog C8 ([3]; C8 in presence of L-CS or FB1): neither L-CS nor FB1 blocked | SA-β-gal expression induced by methamphetamine ([3]; inhibitor 50 μM): suppressed

C=C[C@H]1C[N@@]2CC[C@H]1C[C@@H]2[C@@H](O)c1ccnc2ccc(OC)cc12 [quinidine]
release of ROS evoked by methamphetamine [2]: prevented | ceramide formation in D-meth-treated cells ([1]; MEF, inhibitors each at 10 μM): normalized
